Where a SMILES comes first, the peptide text is derived from it. [ ]: non-standard residue; d: D form. The star is where a group is joined. Dolaproine = CO[C@@H]([C@@H]1CCCN1)[C@@H](C)C(=O)O; Dil = CC[C@H](C)[C@H](NC)[C@@H](CC(=O)O)OC; X1 = C[C@@H](N*)[C@@H](O)c1ccccc1; NMeV = CN[C@H](C(=O)O)C(C)C
What was measured:
HCC1954 cells = test: Cytotoxicity; assay type: cell-based; conditions: for IC50: read-out: Free payload IC50
MDA-MB-468 cells = test: Cytotoxicity; assay type: cell-based; conditions: for IC50: read-out: Free payload IC50, MDA-MB-468 cells
[1] = system: HCC1954 (Ag+) and MDA-MB-468 (Ag−) co-culture; test: Bystander co-culture assay; assay type: cell-based
tumor spheroids = test: Tumor spheroid pharmacodynamic marker; assay type: cell-based; conditions: for Bystander penetration in spheroids by pH3 PD signal (in words): 25 nM AF680-ADC or AF680-trastuzumab, 24-48 hours; for Bystander penetration in spheroids by γH2A.X PD signal (in words): 24-72 hours
PAMPA permeability assay = conditions: free payload

With CC[C@@]1(O)C(=O)OCc2c1cc1n(c2=O)Cc2c-1nc1cc(F)c(C)c3c1c2[C@@H](NC(=O)CO)CC3 [DXd] the IC50 (HCC1954 cells) was roughly 6.2 nM, the “Fold higher free payload sensitivity of MDA-MB-468 cells compared to HCC1954” value (MDA-MB-468 cells) was 2–3 fold and the IC50 (MDA-MB-468 cells) was roughly 2.3 nM. For the same molecule, the “Ag− cell death in co-culture” value ([1]; any concentration higher than 250 pM) was 100%.
For CC[C@H](C)[C@@H]([C@@H](CC(=O)N1CCC[C@H]1[C@H](OC)[C@@H](C)C(=O)N[C@H](C)[C@@H](O)c1ccccc1)OC)N(C)C(=O)[C@@H](NC(=O)[C@@H](NC)C(C)C)C(C)C [MMAE] (H-[NMeV]V[Dil][Dolaproine]-X1), the “Free payload IC50, fold more potent than either Ahx-maytansine or Lys-SMCC-DM1” value (HCC1954 cells) was “over 100 fold”, the “Bystander penetration in spheroids by pH3 PD signal (in words)” value (tumor spheroids) was “pH3 signal throughout the spheroid at 48 hours” and the “PAMPA permeability, fold higher than either Ahx-maytansine or Lys-SMCC-DM1” value (PAMPA permeability assay) was roughly 10 fold.
In the case of CCc1c2c(nc3ccc(O)cc13)-c1cc3c(c(=O)n1C2)COC(=O)[C@]3(O)CC [SN-38], the IC50 (HCC1954 cells) is reported as roughly 1.8 nM, the “Fold higher free payload sensitivity of MDA-MB-468 cells compared to HCC1954” value (MDA-MB-468 cells) is reported as 2–3 fold and the IC50 (MDA-MB-468 cells) is reported as roughly 0.6 nM. For the same molecule, the “Bystander penetration in spheroids by γH2A.X PD signal (in words)” value (tumor spheroids; 25 nM AF680-ADC) was “not readily apparent”.
For CC[C@@]1(O)C(=O)OCc2c1cc1n(c2=O)Cc2c-1nc1cc(F)c(C)c3c1c2[C@@H](N)CC3 [exatecan], the “Bystander penetration in spheroids by γH2A.X PD signal (in words)” value (tumor spheroids; 25 nM AF680-ADC) was “greatest PD signal at the spheroid center”, the “Bystander efficiency in modified co-culture (in words)” value ([1]; fixed number of Ag− cells, increasing number of Ag+ cells, fixed ADC concentration) was “more efficient” and the “PAMPA permeability, fold higher than DXd” value (PAMPA permeability assay) was ~ 2 fold. For the same molecule, the “PAMPA permeability, fold higher than SN-38” value (PAMPA permeability assay) was ~ 5 fold.
For Ahx-maytansine, the “Bystander penetration in spheroids by pH3 PD signal (in words)” value (tumor spheroids) was “detectable but localized bystander cell death”.
For T-DM1, the “Distance from spheroid edge of directly targeted cells showing pH3 signal” value (tumor spheroids; 25 nM AF680-ADC) was ~ 75 µm, the “Bystander penetration in spheroids by pH3 PD signal (in words)” value (tumor spheroids) was “did not exhibit bystander killing even at 48 hours” and the “Ag+ cell death in co-culture (in words)” value ([1]; 1 nM ADC, 6 days) was “complete Ag+ cell death”. For the same molecule, the “Ag− cell bystander toxicity in co-culture (in words)” value ([1]; 1 nM ADC, 6 days, varying % Ag+ cells) was “no Ag− toxicity even at a 90% Ag+ cell percentage”.
For calicheamicin D [CaliD], the “Bystander penetration in spheroids by γH2A.X PD signal (in words)” value (tumor spheroids; 25 nM AF680-ADC) was “greatest bystander cell killing” and the “PD response in spheroids with potency matched doses (in words)” value (tumor spheroids; T-CaliG 75nM, T-CaliD 1nM) was “more efficient at reaching cells in the spheroid center”.
For calicheamicin G [CaliG], the “Bystander penetration in spheroids by γH2A.X PD signal (in words)” value (tumor spheroids; 25 nM AF680-ADC) was “negligible”.
